Molecules are shown by their SMILES. Values after ≈ are worked out from the molar mass of the structure shown.

The test system of one test is leukemia P 388. In words: life-prolonging effect upon leukemia P 388 in mice. It is filed as in vivo, BDF1 mice. To be noted: intraperitoneal, median survival time treated/control. As for the experimental part: (1) The procedure of a test on the life-prolonging effect upon leukemia P 388 in mice
One tenth ml of diluted ascitic fluid containing 1×10^5 cells was implanted in BDF1 mice weighing 18 to 25 g. A suspension of the test-compound is injected intraperitoneally at a constant rate of volume of 0.1 ml/10 g body weight. As the detailed experimental method, the Protocols for Screening Chemical Agents (Geran, R. I., Greenberg, N. H., Macdonald, M. M., Schumacher, A. M., and Abbott, B. J.: Protocols for Screening Chemical Agents and Natural Products against Animal Tumors and Other Biological Systems. Cancer Chemotherapy Rept., 3 (Part 3) 7, 1972) is adopted.
The results are recorded in compliance to the T/C % value calculated on the basis of the median survival time of treated to control animals.

For a further test, the system named is KB cells. Briefly: Inhibition of KB cell multiplication. It is filed as cell-based. Conditions: Homo sapiens, 72 h, cell count on 4th day after seeding, read-out: ED50, inhibition of cell growth. As for the experimental part:
(1) Inhibition of KB cell multiplication
2×10^4 cells were suspended in 1 ml of Eagle's Minimal Essential Medium (MEM)+10% fetal calf serum (MEM.10 Fcs) and seeded in a glass dish (d=1.8 cm) containing a round coverslip (d=1.5 cm).
On the first day after seeding, three coverslips (per test group) were taken out and transferred to a single glass dish (d=4.5 cm) holding 5 ml of MEM.10 Fcs containing a verying concentration of the compound. On the 4th day after seeding, the number of cells per coverslip (3 slips for each concentration level) was determined with a Coulter counter. The result was expressed in the concentration of the drug giving a cell count of 50% (ED50) with the average number of cells for the control (not medicated) group on the 4th day being taken as 100%.

The test system of a further test is BAV3-infected C34 cells. Briefly: Inhibition of the induction of cell multiplication in BAV3-infected C34 cells. Conditions: Mus musculus, 96 h, (V-M) difference on 6th day after seeding, read-out: ED50, inhibition of cell growth. Format: cell-based. As for the experimental part: (2) Inhibition of the induction of cell multiplication in BAV3-infected C34 cells
1×10^5 cells were suspended in 1 ml of Eagle's MEM+10% fetal calf serum (MEM.10 Fcs) and seeded in a glass dish (d=1.8 cm) containing a round coverslip (d=1.5 cm).
On the 2nd day after seeding, infection (37° C., 120 min.) (mock-infection or virus infection; in the case of the latter, multiplicity of infection per cell=100-200 PFU/cell) was carried out. After this operation, one test group (3 coverslips) was taken out and transferred to a glass dish (d=4.5 cm) holding 5 ml of MEM.2 Fcs containing each concentration of compound.
On the 6th day after seeding, the number of cells per coverslip was determined with a Coulter counter. For each experimental group, the difference in all members between virus-infected cells (V) and mock-infected cells (M) was calculated. The result was expressed in the concentration of the drug giving a (V-M) value of 50% (ED50) for the control (not medicated) group as 100%.

For the next test, the system named is AC cells. In words: Inhibition of AC cell multiplication. It is filed as cell-based. To be noted: Rattus norvegicus, 72 h, cell count on 3rd day following replacement of medium, read-out: ED50, inhibition of cell growth. On the procedure: (3) Inhibition of Ac cell multiplication
1×10^5 AC cells (2 ml of Eagle's MEM, with 10% fetal calf serum were seeded in a Falcon dish (in. diam. 3.5 cm). On the 24th hour, replacement was made with the above culture medium containing a varying concentration of drug. The number of cells was determined on the 3rd day following the replacement of medium. The pharmacologic effect was expressed in ED50 (the concentration of the drug giving a cell count of 50% for the treated group with the number of cells for the control group being taken as 100%.

In the case of `CCOC(=O)C1(F)C(=O)NC(=O)NC1OCC` (centres unmarked) [ethyl 5-fluoro-6-ethoxy-1,2,3,4,5,6-hexahydro-2,4-dioxopyrimidine-5-carboxylate], the “T/C(%)” value is given as 130% in the test on leukemia P 388 (50 mg/kg/day), 143% in the test with leukemia P 388 (100 mg/kg/day) and 160% in the test with leukemia P 388 (200 mg/kg/day). Also, the figures for the IC50 in the test on KB cells and with BAV3-infected C34 cells were 2.8 µg/mL (≈ 11.3 µM) and 0.023 µg/mL (≈ 0.0927 µM), respectively.

`COC(=O)C1(F)C(=O)NC(=O)NC1OC` (centres unmarked) [methyl 5-fluoro-6-methoxy-1,2,3,4,5,6-hexahydro-2,4-dioxopyrimidine-5-carboxylate]: the “T/C(%)” value in the test on leukemia P 388 (50 mg/kg/day) stood at 208%; in the test on leukemia P 388 (100 mg/kg/day), 217%; in the test on leukemia P 388 (200 mg/kg/day) it was 243%. For the same compound, the IC50 in the test with AC cells worked out at 0.12 µg/mL (≈ 0.545 µM); in the test with KB cells, 3 µg/mL (≈ 13.6 µM); with BAV3-infected C34 cells, 0.023 µg/mL (≈ 0.104 µM).
